According to patent publication US9605007B2, “2-amino-6-methyl-4,4a,5,6-tetrahydropyrano[3,4-d][1,3]thiazin-8a(8H)-yl-1,3-thiazol-4-yl amides” (Pfizer Inc., priority 2014, dated 2017):
pIC50: −log10 of the molar value.

Tests used:
[1] = biological target: MDR1 (P-glycoprotein) (Homo sapiens (Human), UniProt P08183); assay: Pgp Liability MDR1 Er; assay type: in vitro ADME; settings: MDR1-transfected MDCK line, ratio of permeability Papp BA/AB
Source text: (§1) MDR1 Efflux Ratio (MDR Er) from MDR1-transfected MDCK line cell line represents the ratio of permeability, Papp BA/AB.

[2] = HLM CLint (clearance in human liver microsomes); assay type: in vitro ADME
[3] = test system: sAPPβ in H4 human neuroglioma cells over-expressing wild-type human APP695; assay: sAPPβ Whole-Cell Assay (WCA); assay type: cell-based; settings: 18 h
Protocol: sAPPβ Whole-Cell Assay (WCA):
sAPPβ, the primary cleavage product of BACE1, was determined in H4 human neuroglioma cells over-expressing the wild-type human APP695. […] The colorimetric reaction was read by an EnVision (PerkinElmer) plate-reader.

[4] = test system: BACE2/BACE1; assay: BACE2/BACE1 Binding Ratio (scintillation proximity binding assays); parameters: species or system human; settings: ratio of IC50 from respective binding assays, pH 6.0
Protocol: BACE2/BACE1 Binding Ratio:
The BACE1 and BACE2 binding assays measured beta-site amyloid precursor protein-cleaving enzyme (BACE) binding as a decrease in the counts of radioligand bound in a scintillation proximity assay (SPA). […] Full length human BACE1 or BACE2 over-expressed in HEK cells was prepared by Pfizer scientists. Frozen stock cell paste was reacted in 50 mM sodium acetate buffer (pH=6.0) containing 3H-(4aR,6R,8aS)-8a-(2,4-difluorophenyl)-6-(1-methyl-1H-pyrazol-4-yl)-4,4a,5,6,8,8a-hexahydropyrano[3,4-d][1,3]thiazin-2-amine ligand, SPA bead and 60 μM to 600 pM of test compound in an assay volume of 27 uL. The compound plate also contained positive (BACE inhibitor) and negative (DMSO) control wells. The binding was carried out at room temperature for 30 minutes and then the plates were read on a TriLux Microbeta reader to determine the number of counts bound.

[5] = biological target: CYP2D6 (Homo sapiens (Human), UniProt P10635); assay: General Multi-Point Cocktail DDI IC50 Assay (CYP2D6)
Protocol: General Multi-Point Cocktail DDI IC50 Assay Conditions:
The incubation volume is 0.1 mL, utilizing a 384-well plate format. […] Substrate concentrations are near Km values that had been previously determined and incubation times are selected based on determinations of reaction velocity linearity. […] Samples are directly injected on an HPLC/MS/MS system. A Biomek FX workstation is used for liquid handling and sample incubation.

[6] = GSH Incubation Assay; assay type: in vitro ADME; settings: for formation of GSH adducts: following incubations; for Observed GSH adducts: glutathione (50 mM) at 37° C. in buffer for 4 hours
Protocol: The test compound (10 μM in DMSO) was incubated with L-glutathione (50 mM, prepared in 100 mM potassium phosphate buffer) at 37° C. for 4 hours and then analyzed by HPLC-UV/MS/MS without work-up. Thermo Accela HPLC and Velos Pro Orbitrap Elite (S/N: SN05189B) operating in positive mode with a source voltage of 3.5 kV with data dependant processing. […] Product assignments were based on high resolution mass spectrometer fragmentation.

[7] = test system: MDR1 (P-glycoprotein); assay: Pgp Liability MDR1 Er; assay type: in vitro ADME; settings: dog, MDCK-MDR1
Source text: as §1

[8] = biological target: BACE1 (Homo sapiens (Human), UniProt P56817); assay: BACE1 Cell-Free Assay (fluorescence polarization); assay type: biochemical; settings: geometric mean of 2-4 determinations unless otherwise indicated (b: ≧5 determinations; c: single determination); read-out: BACE 1 Cell-free Assay IC50
Source text: This assay measures the inhibition of the beta-secretase enzyme as it cleaves a non-native peptide.
A synthetic APP substrate that can be cleaved by beta-secretase having N-term inal biotin and made fluorescent by the covalent attachment of Oregon Green at the Cys residue is used to assay beta-secretase activity in the presence or absence of the inhibitory compounds. The substrate is Biotin-[…]-C[Oregon Green]KK-OH. The BACE1 enzyme is affinity purified material from conditioned media of CHO-K1 cells that have been transfected with a soluble BACE construct (BACE1deltaTM96His). […] Plates are covered and incubated for 3 hours at 37° C. […] The activity of the beta-secretase enzyme is detected by changes in the fluorescence polarization that occur when the substrate is cleaved by the enzyme.

Chain of MDR1 (P-glycoprotein) (Homo sapiens (Human), UniProt P08183) (P08183 whole entry): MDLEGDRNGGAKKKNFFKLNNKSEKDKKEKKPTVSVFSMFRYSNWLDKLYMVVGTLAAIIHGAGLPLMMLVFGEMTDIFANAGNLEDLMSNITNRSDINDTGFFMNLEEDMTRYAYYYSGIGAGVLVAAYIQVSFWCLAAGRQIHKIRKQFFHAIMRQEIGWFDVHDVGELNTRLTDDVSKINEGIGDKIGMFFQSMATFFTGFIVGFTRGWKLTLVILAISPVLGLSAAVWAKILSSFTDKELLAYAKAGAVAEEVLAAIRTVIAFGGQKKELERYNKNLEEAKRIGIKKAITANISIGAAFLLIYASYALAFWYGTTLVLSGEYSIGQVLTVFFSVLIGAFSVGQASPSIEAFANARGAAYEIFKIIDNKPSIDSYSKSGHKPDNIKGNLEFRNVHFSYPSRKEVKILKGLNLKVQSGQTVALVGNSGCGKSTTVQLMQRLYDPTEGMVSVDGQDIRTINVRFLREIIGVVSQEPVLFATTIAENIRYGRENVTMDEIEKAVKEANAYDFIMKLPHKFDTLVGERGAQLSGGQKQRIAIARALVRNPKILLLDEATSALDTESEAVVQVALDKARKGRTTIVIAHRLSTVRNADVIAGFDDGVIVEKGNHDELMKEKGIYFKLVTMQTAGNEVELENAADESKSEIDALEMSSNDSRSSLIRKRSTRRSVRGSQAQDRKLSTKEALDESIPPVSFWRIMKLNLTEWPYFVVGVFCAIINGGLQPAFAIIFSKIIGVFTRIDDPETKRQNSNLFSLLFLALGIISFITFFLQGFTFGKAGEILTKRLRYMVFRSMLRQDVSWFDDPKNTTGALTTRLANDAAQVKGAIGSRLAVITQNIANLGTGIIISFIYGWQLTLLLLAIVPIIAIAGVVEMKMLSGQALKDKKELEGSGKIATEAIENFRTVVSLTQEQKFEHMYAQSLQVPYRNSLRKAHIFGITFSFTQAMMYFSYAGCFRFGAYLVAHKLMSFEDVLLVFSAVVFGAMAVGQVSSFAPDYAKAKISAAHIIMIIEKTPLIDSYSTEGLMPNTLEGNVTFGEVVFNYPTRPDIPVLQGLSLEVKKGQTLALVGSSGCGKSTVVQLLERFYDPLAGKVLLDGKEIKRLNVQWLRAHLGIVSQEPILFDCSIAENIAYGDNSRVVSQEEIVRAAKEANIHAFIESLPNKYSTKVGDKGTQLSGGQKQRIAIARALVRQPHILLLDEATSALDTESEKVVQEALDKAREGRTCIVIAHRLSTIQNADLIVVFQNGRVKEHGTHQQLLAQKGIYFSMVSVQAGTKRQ
Chain of CYP2D6 (P10635 whole entry): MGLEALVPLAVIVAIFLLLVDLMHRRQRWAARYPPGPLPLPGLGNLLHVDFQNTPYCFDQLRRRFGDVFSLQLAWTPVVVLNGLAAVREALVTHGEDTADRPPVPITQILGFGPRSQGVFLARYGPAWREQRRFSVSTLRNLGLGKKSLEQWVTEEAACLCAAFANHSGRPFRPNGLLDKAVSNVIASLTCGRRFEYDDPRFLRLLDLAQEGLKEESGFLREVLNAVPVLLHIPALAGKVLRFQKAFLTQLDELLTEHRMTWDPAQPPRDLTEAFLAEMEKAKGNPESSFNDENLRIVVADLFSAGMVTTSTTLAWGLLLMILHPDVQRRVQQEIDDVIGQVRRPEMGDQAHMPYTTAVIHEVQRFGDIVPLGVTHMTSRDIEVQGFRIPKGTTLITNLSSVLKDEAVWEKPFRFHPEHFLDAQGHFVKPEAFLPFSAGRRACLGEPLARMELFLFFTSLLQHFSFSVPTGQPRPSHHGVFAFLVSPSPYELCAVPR
Chain of BACE1 (P56817 46-457): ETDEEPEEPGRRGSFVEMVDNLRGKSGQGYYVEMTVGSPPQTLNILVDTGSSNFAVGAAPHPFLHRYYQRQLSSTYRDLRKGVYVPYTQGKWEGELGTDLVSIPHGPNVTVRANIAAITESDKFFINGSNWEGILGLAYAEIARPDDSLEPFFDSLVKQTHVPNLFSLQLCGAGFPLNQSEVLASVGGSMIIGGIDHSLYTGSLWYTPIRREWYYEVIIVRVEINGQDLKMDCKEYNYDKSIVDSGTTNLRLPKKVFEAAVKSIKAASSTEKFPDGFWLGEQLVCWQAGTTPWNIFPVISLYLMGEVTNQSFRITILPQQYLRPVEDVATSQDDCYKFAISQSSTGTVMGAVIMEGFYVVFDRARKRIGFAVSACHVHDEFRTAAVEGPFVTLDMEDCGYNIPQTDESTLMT

Structure (SMILES): C[C@H]1C[C@H]2CSC(N)=N[C@@]2(c2nc(NC(=O)c3ccc(OC(F)F)cn3)cs2)CO1 [Comparator 1]
- Pgp liability MDR1 Er [1]: 7.1

Structure (SMILES): C[C@H]1C[C@H]2CSC(N)=N[C@@]2(c2nc(NC(=O)c3ccc(OC(F)F)cn3)ccc2F)CO1 [Comparator 2]
- HLM CLint [2]: 22.9 mL/min/kg

Structure (SMILES): NC1=N[C@@]2(c3cc(NC(=O)c4ccc(OC(F)F)cn4)ccc3F)COCC[C@H]2CS1 [Comparator 4]
- HLM CLint [2]: 8.3 mL/m in/kg mL/min/kg
- pIC50 [3]: > 9.00
- Pgp liability MDR1 Er [1]: 6.8

Structure (SMILES): NC1=N[C@@]2(c3cc(NC(=O)c4ccc(OC(F)F)cn4)ccc3F)CO[C@@H](C(F)(F)F)C[C@H]2CS1 [Comparator 6]
- pIC50 [3]: > 9.00
- Pgp liability MDR1 Er [1]: 3.2
- BACE2/BACE1 Binding Ratio [4]: 1.0

Structure (SMILES): C[C@H]1C[C@H]2CSC(N)=N[C@@]2(c2cc(NC(=O)c3ccc(Cl)cn3)ccc2F)CO1 [Comparator 7]
- HLM CLint [2]: 34.4 mL/min/kg
- pIC50 [3]: > 9.00
- BACE2/BACE1 Binding Ratio [4]: 1.0

Structure (SMILES): C[C@H]1C[C@H]2CSC(N)=N[C@@]2(c2nc(NC(=O)c3ccc(OC(F)F)cn3)cs2)CO1 [Example 1, N-{2-[(4aR,6S,8aR)-2-amino-6-methyl-4,4a,5,6-tetrahydropyrano[3,4-d][1,3]thiazin-8a(8H)-yl]-1,3-thiazol-4-yl}-5-(difluoromethoxy)pyridine-2-carboxamide]
- pIC50 [5]: > 4.52
- formation of GSH adducts [6]: not detected
- Observed GSH adducts [6]: Negative

Structure (SMILES): C[C@H]1C[C@H]2CSC(N)=N[C@@]2(c2nc(NC(=O)c3cnc(OC(F)F)cn3)cs2)CO1 [Example 2, N-{2-[(4aR,6S,8aR)-2-amino-6-methyl-4,4a,5,6-tetrahydropyrano[3,4-d][1,3]thiazin-8a(8H)-yl]-1,3-thiazol-4-yl}-5-(difluoromethoxy)pyrazine-2-carboxamide]
- pIC50 [5]: > 4.52
- efflux ratio [7]: < 2.5
- formation of GSH adducts [6]: not detected
- Observed GSH adducts [6]: Negative

Structure (SMILES): C[C@H]1C[C@H]2CSC(N)=N[C@@]2(c2nc(NC(=O)c3coc(CF)n3)cs2)CO1 [Example 3, N-{2-[(4aR,6S,8aR)-2-amino-6-methyl-4,4a,5,6-tetrahydropyrano[3,4-d][1,3]thiazin-8a(8H)-yl]-1,3-thiazol-4-yl}-2-(fluoromethyl)-1,3-oxazole-4-carboxamide]
- pIC50 [8]: 9.15

Structure (SMILES): C[C@H]1C[C@H]2CSC(N)=N[C@@]2(c2nc(NC(=O)c3ccn(C(F)F)n3)cs2)CO1 [Example 4, N-{2-[(4aR,6S,8aR)-2-amino-6-methyl-4,4a,5,6-tetrahydropyrano[3,4-d][1,3]thiazin-8a(8H)-yl]-1,3-thiazol-4-yl}-1-(difluoromethyl)-1H-pyrazole-3-carboxamide]
- pIC50 [8]: 9.05

Structure (SMILES): C[C@H]1C[C@H]2CSC(N)=N[C@@]2(c2nc(NC(=O)c3ccc(Cl)cn3)cs2)CO1 [Example 7, N-{2-[(4aR,6S,8aR)-2-amino-6-methyl-4,4a,5,6-tetrahydropyrano[3,4-d][1,3]thiazin-8a(8H)-yl]-1,3-thiazol-4-yl}-5-chloropyridine-2-carboxamide]
- pIC50 [5]: > 4.52
- formation of GSH adducts [6]: not detected
- Observed GSH adducts [6]: Negative

Structure (SMILES): Cc1cc(OC(F)F)cnc1C(=O)Nc1csc([C@]23CO[C@@H](C)C[C@H]2CSC(N)=N3)n1 [Example 45, N-{2-[(4aR,6S,8aR)-2-amino-6-methyl-4,4a,5,6-tetrahydropyrano[3,4-d][1,3]thiazin-8a(8H)-yl]-1,3-thiazol-4-yl}-5-(difluoromethoxy)-3-methylpyridine-2-carboxamide]
- pIC50 [5]: > 4.52
- formation of GSH adducts [6]: not detected
- Observed GSH adducts [6]: Negative
